Test results: paper PMC11050087, “Polyphenols from Maackia amurensis Heartwood Protect Neuronal Cells from Oxidative Stress and Prevent Herpetic Infection” (International Journal of Molecular Sciences, 2024)
“And” between values parts separate entries of the source, which are not always exact repeats. Equal entries are not always repeated. Where two headings read alike, the source gives them in different places.

Key:
HSV-1 [1] = assay: Treatment of virus-infected cells with polyphenols, CPE inhibition assay; format: cell-based, HSV-1 strain L2
Description: In order to study the mechanism of action of these compounds, two additional schemes of treatment of the virus and Vero cells with polyphenols were applied: the compounds were added before virus infection (pretreatment of cells) and after penetration of the virus into host cells (treatment of infected cells). The fourth method of exposure where the virus and polyphenols were added to cells simultaneously (simultaneous treatment) was previously described by us in [22]. The anti-HSV-1 activity of polyphenols was assessed using the cytopathic effect inhibition (CPE) assay.
The monolayer of cells was infected with the virus (100 TCID50/mL) at 37 °C for 1 h, and then the cells were washed with PBS (Sigma, Saint-Louis, MO, USA) and treated with different concentrations of the studied compounds and incubated until CPE appeared.

HSV-1 [2] = tested on: HSV-1; design: method as in PMID 36985562; settings: ref [22], cited from earlier work
HSV-1 [3] = assay: Virucidal activity, RT-PCR assay (HSV-1 pretreated with compounds); format: cell-based, HSV-1 strain L2; settings: for Ct: 72 h; for −ΔCt: vs virus control
Description: Vero cells grown on 96-well plates were infected with the virus (100 TCID50/mL), pretreated with polyphenolic compounds at concentrations 0.1, 1 and 10 μg/mL. After 72 h of cell incubation, viral DNA was extracted from the supernatants, and the relative level of HSV-1 DNA was determined using RT-PCR. The effect of polyphenols on the relative level of viral DNA was assessed using the 2^−∆Ct method and reported as fold reduction compared to virus control.
(§1) The HSV-1 strain L2 obtained from N.F. Gamaleya Federal Research Centre for Epidemiology and Microbiology (Moscow, Russia) was grown in Vero cells as previously described.
(§2) We determined the direct inhibitory effect of polyphenolic compounds from M. amurensis heartwood on HSV-1 (virucidal effect). We mixed the virus at an infectious dose (100 TCID50/mL) with polyphenolic compounds (from 0.1 to 100 µg/mL) at a ratio of 1:1 (v/v) and incubated for an hour at 37 °C. Then, we infected the monolayer of Vero cells grown on 96-well plates (1 × 10^4 cells/well) with HSV-1 pretreated with the studied compounds. After 1 h adsorption at 37 °C, the cells were washed with phosphate-buffered saline (PBS) and overlaid by the maintenance medium with 1% FBS. The plates were incubated for 72 h at 37 °C in a CO2-incubator. The cytopathic effect (CPE) inhibition assay and real-time reverse transcription-PCR (RT-PCR) assay were used to evaluate virucidal effect of the tested compounds.
We performed the RT-PCR assay as we previously described in detail in [22]. Briefly, HSV-1 DNA was extracted after incubation from cell supernatants by using the DNA-sorb-AM (K1-12-100-CE) nucleic acid extraction kit (AmpliSens®, Moscow, Russia) according to the manufacturer′s instructions. We treated the supernatants with a lysis solution that contained guanidine chloride (chaotropic agent) in the presence of sorbent (silica particles). As the elution solution was added, the DNA was […] silica particles and separated from the sorbent particles by centrifugation.
We detected the DNA of HSV-1 in the obtained samples using the AmpliSens® HSV I, II-FRT-100F PCR kit (AmpliSens®, Moscow, Russia) on a real-time PCR instrument Rotor-Gene Q (Qiagen, Hilden, Nordrhein-Westfalen, Germany) according to the manufacturer′s instructions. The PCR reaction conditions were the following: initial denaturation at 95 °C for 15 min; then 5 cycles at 95 °C for 5 s, at 60 °C for 20 s, at 72 °C for 15 s; then 40 cycles at 95 °C for 5 s, at 60 °C for 20 s, and at 72 °C for 15 s. A negative sample was used as the amplification control for each run. The threshold cycle number Ct, was measured as the PCR cycle, where the amount of the amplified target reached the threshold value; the Ct values ≥ 37 indicated the absence of the HSV-1 DNA in the samples. We assessed the anti-HSV-1 activity of the studied compounds by the reduction in the viral DNA levels using the 2^−ΔCt method according to Equation (2):(2) ΔCt=Ctcv−Cttv where Ct is the threshold cycle number measured as the PCR cycle, where the amount of the amplified target reached the threshold value, […]

[4] = tested on: 6-OHDA-treated Neuro-2a cells; assay: 6-OHDA-induced neurotoxicity model, cell viability test (MTT); format: cell-based, murine; settings: compounds at 10, 1, 0.1 µM; 6-OHDA 100 µM
Description: Neuro-2a cells were incubated with the studied polyphenolic compounds for 1 h. Then, 100 µM of 6-hydroxydopamine 6-OHDA were added. We determined the percentage of living Neuro-2a cells after treatment with 6-OHDA (Figure 4a–d).
Figure 4 The effect of polyphenolic compounds isolated from M. amurensis heartwood on the viability of Neuro-2a cells treated with 6-OHDA (100 μM) (a–d). The viability of Neuro-2a cells treated with various compounds and 6-OHDA was measured by the MTT assay. Polyphenolic compounds isolated from M. amurensis heartwood were used at concentrations 10, 1, 0.1 μM. The data are presented as means ± SEM of three independent replicates. (*) indicate p < 0.05 versus 6-OHDA-treated cells.
After 24 h of adhesion, Neuro-2a cells (5 × 10^4 cells/mL) were treated with polyphenolic compounds at concentrations of 0.1, 1 and 10 μM for 1 h. Then, 100 µM of 6-OHDA or 1 mM of PQ (Sigma-Aldrich, St. Louis, MO, USA) were added. Cells incubated without inductors or with inductors were used as positive and negative control, respectively. Cell viability was measured after 24 h using the MTT assay.

[5] = Cytotoxicity against Vero cells (MTT assay); format: cell-based; settings: African green monkey
Description: We prepared the stock solutions of the tested compounds (10 mg/mL) in DMSO (Sigma, St. Louis, MO, USA). For the MTT assay and further studies of anti-HSV-1 activity, we diluted the stock solutions with DMEM so that the final concentration of DMSO was 0.5%.
We used MTT assay to determine the cytotoxic effect of the tested compounds against Vero cells. We performed the MTT assay as previously described.

HSV-1 [6] = assay: Virucidal activity, CPE inhibition assay (HSV-1 pretreated with compounds); format: cell-based, HSV-1 strain L2
Description: The antiviral activity of polyphenols from M. amurensis against HSV-1 was assessed using the cytopathic effect inhibition (CPE) assay. To study the inhibitory effect of polyphenolic compounds directly on the HSV-1 virus (direct virucidal activity), the monolayer of Vero cells grown on 96-well plates (1 × 10^4 cells/well) was infected with the virus (100 TCD50/mL), pretreated with different concentrations of polyphenolic compounds.
as §1, §2
We previously described this method in detail in [22]. We performed the MTT assay to evaluate the antiviral activity of polyphenolic compounds. The viral inhibition rate (IR, %) was calculated according to Equation (1):(1) IR, %=Atv−Acv/Acd−Acv×100, where Atv is the absorbance of cells infected with HSV-1 pretreated with the studied compounds,
We calculated the selectivity index (SI) as the ratio of CC50 to IC50. Experiments were repeated three times.

[7] = Human alphaherpesvirus 1, 72 h, read-out: 2^−ΔCt
[8] = Human alphaherpesvirus 1, 72 h, read-out: log10

Nc1nc2c(ncn2COCCO)c(=O)[nH]1 [Acyclovir, reference compound]
IC50 (HSV-1 [1]; Human alphaherpesvirus 1, compound added after virus adsorption and penetration, CPE assay): 0.4 µg/mL and 1.8 µM
Treatment of Infected Cells SI (HSV-1 [1]; ratio of CC50 to IC50): >2500
Simultaneous Treatment SI (HSV-1 [2]; ratio of CC50 to IC50): 430
Simultaneous Treatment IC50 (HSV-1 [2]; virus and compound added to cells simultaneously, CPE assay): 2.1 ± 0.3 µg/mL
IC50 (HSV-1 [2]; virus and compound added to cells simultaneously, CPE assay, read-out: Simultaneous Treatment IC50): 9.3 ± 1.3 µM

Oc1ccc2c(c1)OC[C@H]1c3cc4c(cc3O[C@@H]21)OCO4 [Compound 4, maackiain]
Ct (HSV-1 [3]; 0.1 µg/mL): 18.1 ± 2.2
−ΔCt (HSV-1 [3]; 0.1 µg/mL): 0
Ct (HSV-1 [3]; 1 µg/mL): 19.0 ± 2.1
−ΔCt (HSV-1 [3]; 1 µg/mL): −0.9 ± 0.1
anti-HSV-1 activity by RT-PCR (in words) (HSV-1 [3]; 10 µg/mL): moderate anti-HSV-1 activity
Ct (HSV-1 [3]; 10 µg/mL): 20.7 ± 2.3
−ΔCt (HSV-1 [3]; 10 µg/mL): −2.6 ± 0.3
activity at 0.1 µg/mL (HSV-1 [3]; [7]): 100%
activity at 1 µg/mL (HSV-1 [3]; [7]): 53.6 ± 6.4%
activity at 10 µg/mL (HSV-1 [3]; [7]): 16.5 ± 2.1%
log reduction at 0.1 µg/mL (HSV-1 [3]; [8]): 0
log reduction at 1 µg/mL (HSV-1 [3]; [8]): 0.3 ± 0.04
log reduction at 10 µg/mL (HSV-1 [3]; [8]): 0.8 ± 0.1
effect on viability of 6-OHDA-treated Neuro-2a cells (in words) [4]: weak effect on cell viability
CC50 [5]: 152 µg/mL and 536 µM
IC50 (HSV-1 [6]; Human alphaherpesvirus 1, virus pretreated with compound (virucidal), CPE assay, Vero cells, 100 TCID50/mL): 28.3 µg/mL and 99.6 µM
SI (HSV-1 [6]; ratio of CC50 to IC50, virucidal scheme): 5.4 and 5.4 ± 0.7
